Results: US10149876B2, “Tripterygium wilfordii extracts to overcome chemotherapy resistance” (WESTERN UNIVERSITY OF HEALTH SCIENCES, priority 2012, dated 2018)
Values joined by “and” are separate entries in the source; they are usually repeats but may differ in a detail not shown here. Equal values may be shown once. Read-outs that look alike come from different tables or passages of the source.

Columns and labels:
DU145-TxR cells = assay: SRB cell viability assay, docetaxel-resistant DU145-TxR cells; assay type: cell-based; conditions: Homo sapiens; for IC50: docetaxel, DU-145-TxR; for viability at 1 pM / viability at 0.0001 µM / viability at 0.000333 µM / viability at 0.001 µM / viability at 0.00333 µM / viability at 0.01 µM / viability at 0.0333 µM / viability at 0.1 µM: read-out: % viable, DU145-TxR; for viability at 1 pM: docetaxel 0.001 nM 72 h; for viability at 0.0001 µM: docetaxel 0.1 nM 72 h; for viability at 0.000333 µM: docetaxel 0.333 nM 72 h; for viability at 0.001 µM: docetaxel 1 nM 72 h; for viability at 0.00333 µM: docetaxel 3.33 nM 72 h; for viability at 0.01 µM: docetaxel 10 nM 72 h; for viability at 0.0333 µM: docetaxel 33.3 nM 72 h; for viability at 0.1 µM: docetaxel 100 nM 72 h
Procedure: Using the methods described in Example 2, the chemosensitizing effect of LGT-E pretreatment on docetaxel-treated DU145-TrX cells was studied. […] The DU145-TxR cells were plated at passage 38. […] Tables 6, 8, and 10 report control data obtained from DU145-TxR cells that were not pre-treated with LGT-E. FIG. 4 summarizes the data of Tables 5-10 in a graphical format.

DU145 cells = assay: SRB cell viability assay, docetaxel-sensitive DU145 cells; assay type: cell-based; conditions: Homo sapiens; for viability at 1 pM: docetaxel 0.001 nM 72 h; for viability at 0.000333 µM: docetaxel 0.333 nM 72 h; for viability at 0.001 µM: docetaxel 1 nM 72 h; for viability at 0.00333 µM: docetaxel 3.33 nM 72 h; for viability at 0.01 µM: docetaxel 10 nM 72 h; for viability at 0.0333 µM: docetaxel 33.3 nM 72 h; for viability at 0.1 µM: docetaxel 100 nM 72 h; for IC50: DU-145
Procedure: The chemotherapeutic drugs that were tested for chemosensitization in combination with LTG-E were docetaxel, daunorubicin, Herceptin®, and lapatinib. […] Table 17 also contains the serially-diluted concentrations of drugs that each cell line was tested against.
Using the methods described in Example 2, the chemosensitizing effect of LGT-E pretreatment on docetaxel-treated DU145 cells was studied. […] Table 20 reports control data obtained from DU145 cells that were not pre-treated with LGT-E. FIG. 7 summarizes the data of Tables 19 and 20 in a graphical format.

K562 cells = assay: SRB cell viability assay, daunorubicin-sensitive K562 cells; assay type: cell-based, human; conditions: 72 h, background = 0.044; for mean A at 565 nm: no LGT-E pre-treatment; for mean A at 516 nm: pre-treated with 25 μg/ml LGT-E
Procedure: Cell culture of the above cell lines was performed as described in Example 2, except that 5,000, rather than 3,000 cells were plated per well for the K562, K562/Dox, BT474, SkBr3 lines.
Table 17 also contains the serially-diluted concentrations of drugs that each cell line was tested against.
Table 36 reports the cell viability data relating to pre-treatment with LTG-E prior to daunorubicin treatment. Table 37 reports control data obtained from cells that were not pre-treated with LGT-E prior to daunorubicin treatment. FIG. 15 summarizes the data of Tables 36 and 37 in a graphical format.

[1] = DU-145, read-out: % viable, DU145, LGT-E 50 μg/ml pre-treatment
[2] = DU-145, read-out: % viable, DU145, no LGT-E pre-treatment
[3] = Docetaxel 0.001 nM (so in the source)
[4] = Docetaxel 0.1 nM (so in the source)
[5] = Docetaxel 3.33 nM (so in the source)
[6] = Docetaxel 10 nM (so in the source)
[7] = Docetaxel 33.3 nM (so in the source)
[8] = Docetaxel 100 nM (so in the source)

CC(=O)O[C@@]12CO[C@@H]1C[C@H](O)[C@@]1(C)C(=O)[C@H](O)C3=C(C)[C@@H](OC(=O)[C@H](O)[C@@H](NC(=O)OC(C)(C)C)c4ccccc4)C[C@@](O)([C@@H](OC(=O)c4ccccc4)[C@H]21)C3(C)C [Docetaxel, docetaxel]
IC50 (DU145-TxR cells; LGT-E 25 μg/ml pre-treatment, read-out: IC50 of drug when cells pre-treated with Chemosensitizing Agent before drug treatment): 5.76 nM and 0.00465 µg/mL | IC50 (DU145-TxR cells; line of LGT-E 25 μg/ml, read-out: IC50 of drug when cells treated with drug only): > 100 nM and ≥ 0.0808 µg/mL | viability at 1 pM (DU145-TxR cells; LGT-E 25 μg/ml pre-treatment): 100% | viability at 0.0001 µM (DU145-TxR cells; LGT-E 25 μg/ml pre-treatment): 102% | viability at 0.000333 µM (DU145-TxR cells; LGT-E 25 μg/ml pre-treatment): 102% | viability at 0.001 µM (DU145-TxR cells; LGT-E 25 μg/ml pre-treatment): 98.6% | viability at 0.00333 µM (DU145-TxR cells; LGT-E 25 μg/ml pre-treatment): 74.7% | viability at 0.01 µM (DU145-TxR cells; LGT-E 25 μg/ml pre-treatment): 33.5% | viability at 0.0333 µM (DU145-TxR cells; LGT-E 25 μg/ml pre-treatment): 13.7% | viability at 0.1 µM (DU145-TxR cells; LGT-E 25 μg/ml pre-treatment): 6.2% | viability at 1 pM (DU145-TxR cells; LGT-E 50 μg/ml pre-treatment): 100% | viability at 0.000333 µM (DU145-TxR cells; LGT-E 50 μg/ml pre-treatment): 97% | viability at 0.001 µM (DU145-TxR cells; LGT-E 50 μg/ml pre-treatment): 82.1% | viability at 0.00333 µM (DU145-TxR cells; LGT-E 50 μg/ml pre-treatment): 34.4% | viability at 0.01 µM (DU145-TxR cells; LGT-E 50 μg/ml pre-treatment): 11.6% | viability at 0.0333 µM (DU145-TxR cells; LGT-E 50 μg/ml pre-treatment): 5.4% | viability at 0.1 µM (DU145-TxR cells; LGT-E 50 μg/ml pre-treatment): 5.5% | viability at 1 pM (DU145-TxR cells; LGT-E […] pre-treatment): 100% | viability at 0.0001 µM (DU145-TxR cells; LGT-E […] pre-treatment): 98.1% | viability at 0.000333 µM (DU145-TxR cells; LGT-E […] pre-treatment): 96% | viability at 0.001 µM (DU145-TxR cells; LGT-E […] pre-treatment): 98.1% | viability at 0.00333 µM (DU145-TxR cells; LGT-E […] pre-treatment): 91.5% | viability at 0.01 µM (DU145-TxR cells; LGT-E […] pre-treatment): 82.9% | viability at 0.0333 µM (DU145-TxR cells; LGT-E […] pre-treatment): 41% | viability at 0.1 µM (DU145-TxR cells; LGT-E […] pre-treatment): 17.5% | viability at 1 pM (DU145-TxR cells; no pre-treatment (Table 6)): 100% | viability at 0.0001 µM (DU145-TxR cells; no pre-treatment (Table 6)): 103% | viability at 0.000333 µM (DU145-TxR cells; no pre-treatment (Table 6)): 102% | viability at 0.001 µM (DU145-TxR cells; no pre-treatment (Table 6)): 102% | viability at 0.00333 µM (DU145-TxR cells; no pre-treatment (Table 6)): 102% | viability at 0.01 µM (DU145-TxR cells; no pre-treatment (Table 6)): 102% | viability at 0.0333 µM (DU145-TxR cells; no pre-treatment (Table 6)): 101% | viability at 0.1 µM (DU145-TxR cells; no pre-treatment (Table 6)): 94.8% | viability at 1 pM (DU145-TxR cells; no pre-treatment (Table 8)): 100% | viability at 0.0001 µM (DU145-TxR cells; no pre-treatment (Table 8)): 102% | viability at 0.000333 µM (DU145-TxR cells; no pre-treatment (Table 8)): 102% | viability at 0.001 µM (DU145-TxR cells; no pre-treatment (Table 8)): 102% | viability at 0.00333 µM (DU145-TxR cells; no pre-treatment (Table 8)): 102% | viability at 0.01 µM (DU145-TxR cells; no pre-treatment (Table 8)): 100% | viability at 0.0333 µM (DU145-TxR cells; no pre-treatment (Table 8)): 98.1% | viability at 0.1 µM (DU145-TxR cells; no pre-treatment (Table 8)): 91% | viability at 1 pM (DU145-TxR cells; no pre-treatment (Table 10)): 100% | viability at 0.0001 µM (DU145-TxR cells; no pre-treatment (Table 10)): 101% | viability at 0.000333 µM (DU145-TxR cells; no pre-treatment (Table 10)): 97.7% | viability at 0.001 µM (DU145-TxR cells; no pre-treatment (Table 10)): 99.3% | viability at 0.00333 µM (DU145-TxR cells; no pre-treatment (Table 10)): 98.8% | viability at 0.01 µM (DU145-TxR cells; no pre-treatment (Table 10)): 97.2% | viability at 0.0333 µM (DU145-TxR cells; no pre-treatment (Table 10)): 95.4% | viability at 0.1 µM (DU145-TxR cells; no pre-treatment (Table 10)): 90.9% | viability at 1 pM (DU145 cells; [1]): 100% | viability at 0.000333 µM (DU145 cells; [1]): 100% | viability at 0.001 µM (DU145 cells; [1]): 97.4% | viability at 0.00333 µM (DU145 cells; [1]): 54% | viability at 0.01 µM (DU145 cells; [1]): 23.9% | viability at 0.0333 µM (DU145 cells; [1]): 9.6% | viability at 0.1 µM (DU145 cells; [1]): 9.3% | viability at 1 pM (DU145 cells; [2]): 100% | viability at 0.0001 µM (DU145 cells; DU-145, read-out: % viable, DU145, no LGT-E pre-treatment, docetaxel 0.1 nM 72 h): 100% | viability at 0.000333 µM (DU145 cells; [2]): 101% | viability at 0.001 µM (DU145 cells; [2]): 100% | viability at 0.00333 µM (DU145 cells; [2]): 86.9% | viability at 0.01 µM (DU145 cells; [2]): 44.4% | viability at 0.0333 µM (DU145 cells; [2]): 24.1% | viability at 0.1 µM (DU145 cells; [2]): 21.8% | IC50 (DU145 cells; read-out: IC50 of drug when cells pre-treated with Chemosensitizing Agent before drug treatment): 3.39 nM and 0.00274 µg/mL | IC50 (DU145 cells; read-out: IC50 of drug when cells treated with drug only): 6.65 nM and 0.00537 µg/mL | mean A at 565 nm (K562 cells; [3]): 2.844 | mean A at 516 nm (K562 cells; [3]): 2.860 | mean A at 565 nm (K562 cells; [4]): 2.874 | mean A at 516 nm (K562 cells; [4]): 2.851 | mean A at 565 nm (K562 cells; Docetaxel 0.333 nM (so in the source)): 2.274 | mean A at 565 nm (K562 cells; Docetaxel 1 nM (so in the source)): 1.414 | mean A at 565 nm (K562 cells; [5]): 1.269 | mean A at 516 nm (K562 cells; [5]): 1.331 | mean A at 565 nm (K562 cells; [6]): 0.732 | mean A at 516 nm (K562 cells; [6]): 1.148 | mean A at 565 nm (K562 cells; [7]): 0.300 | mean A at 516 nm (K562 cells; [7]): 0.723 | mean A at 565 nm (K562 cells; [8]): 0.436 | mean A at 516 nm (K562 cells; [8]): 0.553
